Values of other authors in patent US7276520B2, “Bicyclic piperidine derivatives as melanocortin-4 receptor agonists” (Merck & Co., Inc., priority 2003, dated 2007).

What was measured:
erectile dysfunction = details: for duration of effect / onset of action: after an oral dose; for share of men/patients in whom the drug is effective (adequate response): oral
[1] = test system: males with psychogenic erectile dysfunction
[2] = in vivo, po

Row | Molecule | duration of effect (erectile dysfunction) | onset of action (erectile dysfunction) [min] | share of men/patients in whom the drug is effective (adequate response) (erectile dysfunction) | response rate ([1]; injected intramuscularly or subcutaneously, psychogenic erectile dysfunction) [%] | duration of action ([1]; subcutaneous injection) | time to onset of erection ([1]; subcutaneous injection) [min] | absorption into the systemic circulation [2]
1 | CCCc1nn(C)c2c(=O)[nH]c(-c3cc(S(=O)(=O)N4CCN(C)CC4)ccc3OCC)nc12 [sildenafil] | about 4 hours | 30 to 60 | about 70% |  |  |  | 
2 | Cc1ccc(N(CC2=NCCN2)c2cccc(O)c2)cc1 [phentolamine] | 2 h | 5 to 30 | 35-40% |  |  |  | 
3 | Ac-Nle-c[Asp-His-DPhe-Arg-Trp-Lys]-NH2 [MT-II] |  |  |  | 75 | approximately 2.5 hours | 10 to 20 | not absorbed into the systemic circulation
